# Assay results reported in patent publication US9918656B2, “Implantable magnetic relaxation sensors and methods of measuring a sensor's cumulative exposure to a biomarker” (Massachusetts Institute of Technology, priority 2010, dated 2018).
# System: murine model
# Assay: Doxorubicin cardiotoxicity: change in T2 of explanted myoglobin sensors
# Conditions: myoglobin sensors left in vivo for 72 h after implantation; FIG. 17
# From the text: FIG. 17 is a chart, illustrating data from experiments using sensors to detect the cardiotoxic effect of the drug Doxorubicin measured by change in T2 of […] sensors.
# Derivatized particles were encapsulated within small diffusion devices. Polycarbonate diffusion membranes (SPI Supplies) were affixed by double-sided adhesive to one side of high-density polyethylene cylinders (thickness=1.6 mm, inner diameter=4.1 mm, outer diameter=7.9 mm). The opposing end was closed off by single-sided adhesive (3M) after the reservoir was filled with 25 μl particle solution. Devices (n=6 per animal) were implanted subcutaneously in the flank. The animals were euthanized and the devices explanted for single-sided relaxometry at specified time points. Devices were sealed with single-sided adhesive and replaced in the implant site for imaging.
# The application of the sensors to discern drug cardiotoxicity was also studied. Doxorubicin is a potent anthracycline antibiotic that has found wide clinical use as a cancer chemotherapeutic. […] It was confirmed that serum myoglobin increases after doxorubicin administration in a murine model (as illustrated in FIG. 16), although at an order of magnitude lower concentration than after acute MI (10^2 ng/ml versus 10^3 ng/ml). Myoglobin sensors were thus left in vivo for 72 h after implantation (as opposed to 24 h for acute MI). […]
smiles,measurement,value
COc1cccc2c1C(=O)c1c(O)c3c(c(O)c1C2=O)C[C@@](O)(C(=O)CO)C[C@@H]3O[C@H]1C[C@H](N)[C@H](O)[C@H](C)O1 [Doxorubicin],"sensor T2, experimental versus control groups",clear distinction in sensor T2 between the experimental and control groups
